# “And” between values parts separate entries of the source, which are not always exact repeats. Equal entries are not always repeated.
# Legend:
# Type in all cases: in vivo, rat
# rats [1] = assay: Evaluation of the amount of stool (number of expelled pellets)
# Protocol: (§1) Intestinal transit, colon peristalsis and the amount of stool expelled have been evaluated on rats, after the administration of different individual doses of macrogol and sodium hyaluronate and of the combination of the invention.
# In Table 3 it is possible to observe an increase in the number of expelled pellets from the rat after the PEG (365-1460 mg/kg p.o. without water and […] p.o. with water) and 20-50 mg/kg hyaluronate treatment in both conditions. […] A greater number of expelled pellets have been induced by the combination of 730 mg/kg p.o. PEG with 30 and 50 mg/kg p.o. sodium hyaluronate+water. […] By administering a dose of 487 mg/kg PEG+50 mg/kg p.o. sodium hyaluronate+water, the number of expelled pellets is equal to that one that can be observed with 730 mg/kg p.o. PEG and 30 mg/kg p.o. sodium hyaluronate. […] The stool expulsion has been monitored for each rat, starting from 1 h after the administration of the preparations (Martinez e Taché, Brain Res. 893: 29-35, 2001).
# rats [2] = assay: Intestinal transit, activated carbon feed (method of Schulz et al); details: for % of increase of intestinal transit with respect to: rats
# Protocol: as §1
# On the other hand, such a parameter is increased with a dose-response behavior at the same doses by adding 0.3 ml of water administered per os. as well. In fact, the percentage increase values range from +10% at the 365 mg/kg p.o. dose of PEG to +23% at the 1560 mg/kg p.o. dose. […] Interesting results, under the same experimental conditions, have been obtained with the combination of PEG and sodium hyaluronate.
# The experiment has been carried out following the method of Schulz et al (NS Arch. Pharmacol. 308:255-260, 1979) by using an activated carbon feed. 1.5 ml of a 20% (w/v) activated carbon suspension in a 5% (w/v) gum arabic solution has been administered by gavage to 24 hrs starved rats with free access to water. The rats have been sacrificed 10 min after receiving the activated carbon feed and their intestine has been completely removed. The transit in the small intestine has been calculated for each rat as the ratio between the traveled distance of the activated carbon feed and the total length of the intestine itself. Data are expressed as the percentage of transit in treated rats with respect to controls that have been considered as 100. Administration of the preparations occurred 30 min before sacrificing the animal.
# rats [3] = assay: Colon propulsion, glass bead expulsion from distal colon (Raffa et al.; Lopez)
# From the text: as §1
# In this case all the values are significant with respect to the same treatment without water. […] Analogously to what observed in tab. […] The reduction of expulsion time results to be dose dependent, being in all the cases clearly evident and statistically significant with respect to the PEG+water dose. […] Propulsion of distal colon has been measured according to the method of Raffa et al. (Life Sci., 41: 2229-34, 1987) and of Lopez (Dig. Dis. Sci., 29:551, 1984). 30 min after the administration of the preparations, a 5 mm diameter glass bead has been inserted in the distal colon of each rat at 3 cm from the anus. The parameter taken as the reference was the time required by each rat to expel the bead. The lower the expulsion time, the highest the colon propulsion.
# [4] = 20 mg/kg p.o. IALURONATE, no water
# [5] = 30 mg/kg p.o. IALURONATE, no water
# [6] = 50 mg/kg p.o. IALURONATE, no water
substance,measurement,setting,value
polyethylene glycol [PEG],No of pellets after 60 min,rats [1]; 365 mg/kg p.o. PEG + Water 2 ml,0
same,No of pellets after 60 min,"rats [1]; 365 mg/kg p.o. PEG, no water",0
same,No of pellets after 60 min,rats [1]; 487 mg/kg p.o. PEG + Water 2 ml,2
same,No of pellets after 60 min,rats [1]; 730 mg/kg p.o. PEG + Water 2 ml,3
same,No of pellets after 60 min,"rats [1]; 730 mg/kg p.o. PEG, no water",0
same,No of pellets after 60 min,rats [1]; 973 mg/kg p.o. PEG + Water 2 ml,3
same,No of pellets after 60 min,"rats [1]; 973 mg/kg p.o. PEG, no water",1
same,No of pellets after 60 min,"rats [1]; 1460 mg/kg p.o. PEG, no water",1
same,No of pellets after 60 min,rats [1]; 1560 mg/kg p.o. PEG + Water 2 ml,3
same,% of increase of intestinal transit with respect to,rats [2]; 365 mg/kg p.o. PEG + Water 0.3 ml,10% and 10.8%
same,% of increase of intestinal transit with respect to,"rats [2]; 365 mg/kg p.o. PEG, no water",9.4%
same,% of increase of intestinal transit with respect to,rats [2]; 487 mg/kg p.o. PEG + Water 0.3 ml,11.5%
same,% of increase of intestinal transit with respect to,rats [2]; 730 mg/kg p.o. PEG + Water 0.3 ml,15.3%
same,% of increase of intestinal transit with respect to,"rats [2]; 730 mg/kg p.o. PEG, no water",6.7%
same,% of increase of intestinal transit with respect to,rats [2]; 973 mg/kg p.o. PEG + Water 0.3 ml,18.6%
same,% of increase of intestinal transit with respect to,"rats [2]; 973 mg/kg p.o. PEG, no water",8.8%
same,% of increase of intestinal transit with respect to,"rats [2]; 1460 mg/kg p.o. PEG, no water",8.6%
same,% of increase of intestinal transit with respect to,rats [2]; 1560 mg/kg p.o. PEG + Water 0.3 ml,23% and 23.2%
same,intestinal motility,"rats [2]; PEG by gavage, 365 to 1460 mg/kg p.o., without water, rat",does not induce a significant increase
same,Bead Expulsion time,"rats [3]; 365 mg/kg p.o. PEG + Water 0.3 ml, rats",153 ± 13 s
same,Bead Expulsion time,"rats [3]; 365 mg/kg p.o. PEG, no water, rats",202 ± 11 s
same,Bead Expulsion time,"rats [3]; 487 mg/kg p.o. PEG + Water 0.3 ml, rats",135 ± 19 s
same,Bead Expulsion time,"rats [3]; 730 mg/kg p.o. PEG + Water 0.3 ml, rats",128 ± 16 s
same,Bead Expulsion time,"rats [3]; 730 mg/kg p.o. PEG, no water, rats",181 ± 9 s
same,Bead Expulsion time,"rats [3]; 973 mg/kg p.o. PEG + Water 0.3 ml, rats",116 ± 18 s
same,Bead Expulsion time,"rats [3]; 973 mg/kg p.o. PEG, no water, rats",185 ± 12 s
same,Bead Expulsion time,"rats [3]; 1460 mg/kg p.o. PEG, no water, rats",173 ± 15 s
same,Bead Expulsion time,"rats [3]; 1560 mg/kg p.o. PEG + Water 0.3 ml, rats",93 ± 9 s
same,colon propulsion activity,"rats [3]; PEG 365 to 1560 mg/kg p.o. with simultaneous intake of water, vs same treatment without water, rats",statistically significant effect
same,colon propulsion activity,"rats [3]; PEG alone, without simultaneous administration of water by gavage, rats",does not modify
sodium hyaluronate [IALURONATE],No of pellets after 60 min,rats [1]; 20 mg/kg p.o. IALURONATE + Water 2 ml,2
same,No of pellets after 60 min,rats [1]; [4],0
same,No of pellets after 60 min,rats [1]; 30 mg/kg p.o. IALURONATE + Water 2 ml,2
same,No of pellets after 60 min,rats [1]; [5],1
same,No of pellets after 60 min,rats [1]; 50 mg/kg p.o. IALURONATE + Water 2 ml,3
same,No of pellets after 60 min,rats [1]; [6],1
same,% of increase of intestinal transit with respect to,rats [2]; 20 mg/kg p.o. IALURONATE + Water 0.3 ml,17.0%
same,% of increase of intestinal transit with respect to,rats [2]; [4],0%
same,% of increase of intestinal transit with respect to,rats [2]; 30 mg/kg p.o. IALURONATE + Water 0.3 ml,19.6%
same,% of increase of intestinal transit with respect to,rats [2]; [5],3.8%
same,% of increase of intestinal transit with respect to,rats [2]; 50 mg/kg p.o. IALURONATE + Water 0.3 ml,20.3%
same,% of increase of intestinal transit with respect to,rats [2]; [6],4.2%
same,intestinal transit,"rats [2]; sodium hyaluronate 20-50 mg/kg p.o., without simultaneous intake of water, rat",does not induce an increase
same,Bead Expulsion time,"rats [3]; 20 mg/kg p.o. IALURONATE + Water 0.3 ml, rats",129 ± 14 s
same,Bead Expulsion time,"rats [3]; 20 mg/kg p.o. IALURONATE, no water, rats",195 ± 12 s
same,Bead Expulsion time,"rats [3]; 30 mg/kg p.o. IALURONATE + Water 0.3 ml, rats",120 ± 11 s
same,Bead Expulsion time,"rats [3]; 30 mg/kg p.o. IALURONATE, no water, rats",191 ± 16 s
same,Bead Expulsion time,"rats [3]; 50 mg/kg p.o. IALURONATE + Water 0.3 ml, rats",114 ± 15 s
same,Bead Expulsion time,"rats [3]; 50 mg/kg p.o. IALURONATE, no water, rats",188 ± 21 s
same,expulsion time of the bead,"rats [3]; sodium hyaluronate 20-50 mg/kg p.o. by gavage, no water, rats",does not modify
same,expulsion time of the bead,"rats [3]; sodium hyaluronate 20-50 mg/kg p.o., rat intakes water (0.2 ml)",the effect is very evident
